The source of these data is patent US20050261319A1, “Novel 2-amino-4-quinazolinones and 2-amino-4-oxoquinazolones as LXR nuclear receptor binding compounds with partial agonistic properties” (priority 2002, published 2005).

Experiment [1] has as its system ABCA1 and ABCG1 in THP-1 cells. Briefly: mRNA content of LXR target genes ABCA1 and ABCG1 in THP-1 cells (TaqMan). It counts as cell-based. Here is the method:
THP-1 (3×10^5 cells per dish) cells were seeded in […] RPMI-1640 medium (ATTC, Cat. No. 30-2001) containing 10% FCS (GIBCO) and 100 nM TPA and cultivated at 37° C. in 5% CO2 for 24 or 48 hours. HepG2 (4.5×10^5 cells per dish) were seeded in 24 well dishes in 3 ml DMEM Medium containing 10% FCS (GIBCO) and cultivated at 37° C. in 5% CO2 for 48 hours as indicated in FIG. 8B or until they are approx. 60% confluent.
The medium was then removed and replaced with medium containing 10% charcoal/stripped FCS (Hyclone) for 12 h.
LXR compounds are dissolved in DMSO, with the final solvent concentration never exceeding 0.125%. All treatments are done in triplicates and experiments repeated twice. Total RNA is extracted using the Qiagen Rneasy Mini Kit and treated with DNase (DNA free kit, Ambion). RNA is reverse transcribed with Oligo (dT) primer and real-time reverse transcription PCR (TaqMan) is performed using the ABI Prism 7900HT Sequence Detection System and reagents supplied by Applied Biosystems. mRNA steady state levels are normalised to H3 histone (H3F3A) expression levels.
The sequences of forward primers, reverse primers and TaqMan probes are as follows
A general note: In qPCR the cycle at which signal appears reflects the starting amount.

Experiment [2] deals with T1, human LXRalpha LBD (Homo sapiens, UniProt Q13133, A196R).
T1 construct: from amino acids 155 of hLXRalpha to 447; made in house; host or cells: SF9 insect cells (baculovirus) for LXRalpha LBD; E. coli BL21 for Tif2 fragment
T1 sequence (Q13133 155-447 A196R): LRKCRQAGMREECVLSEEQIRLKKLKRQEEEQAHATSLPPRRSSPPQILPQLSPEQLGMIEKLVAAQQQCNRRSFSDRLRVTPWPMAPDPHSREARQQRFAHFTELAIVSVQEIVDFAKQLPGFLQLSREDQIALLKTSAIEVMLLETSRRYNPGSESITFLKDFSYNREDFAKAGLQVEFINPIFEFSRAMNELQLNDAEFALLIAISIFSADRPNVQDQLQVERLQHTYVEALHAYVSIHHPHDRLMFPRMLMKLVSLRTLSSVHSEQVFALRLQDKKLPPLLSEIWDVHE
T1 sequence (Q15596 548-878 partner limits assumed): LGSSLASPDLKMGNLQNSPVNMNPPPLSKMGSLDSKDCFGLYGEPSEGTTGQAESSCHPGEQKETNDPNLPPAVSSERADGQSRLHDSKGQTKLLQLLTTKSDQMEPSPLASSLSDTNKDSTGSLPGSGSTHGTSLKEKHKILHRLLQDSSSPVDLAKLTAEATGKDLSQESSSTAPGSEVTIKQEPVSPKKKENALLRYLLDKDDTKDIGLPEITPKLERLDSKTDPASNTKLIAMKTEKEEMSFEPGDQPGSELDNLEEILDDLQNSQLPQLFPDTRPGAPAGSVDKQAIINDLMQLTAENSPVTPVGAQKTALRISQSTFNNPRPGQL
Kind of experiment: In vitro screening for LXR binding to coactivator Tif2 (LANCE TR-FRET). It counts as biochemical. An excerpt: For screening purposes a GST and 6× His fusion of the LBD (from amino acids 155 of hLXRalpha to 447) of human LXRalpha was constructed by first cloning a Gateway cassette (Invitrogen) in frame into the Sma I site of the pAGGHLT Polylinker (Pharmingen). Then a PCR fragment specifically amplified from human liver cDNA was cloned into the resulting pACGHLT-GW following the manufacturers instructions for Gateway cloning (Invitrogen) to yield pACGHLT-GW-hLXRalphaLBD.
100% sequence integrity of all recombinant products was verified by sequencing. Recombinant Baculovirus was constructed from pACGHLT-GW-hLXRalphaLBD using the Pharmingen Baculovirus Expression vector system according to instructions of the manufacturer. Monolayer cultures of SF9 cells were infected by the virus as recommended by Pharmingen or 200 ml cultures of 1×10^6 cells/ml grown in 2 liter Erlenmeyer flasks on an orbital shaker at 30 rpm were infected by 10 ml of same virus stock. In both cases cells were harvested 3 days after infection. All cell growth was performed in Gibco SF900 II with Glutamine (Invitrogen) medium without serum supplementation at 28° C. Since SF9 cells contain significant amounts of endogenous 30 GST, purification was performed via His and not via GST affinity chromatography.
To this end instructions of Pharmingen for purification of recombinant His tagged proteins from SF9 cells were followed with the following modifications: All detergents were omitted from the buffers and cells were lysed on ice by 5 subsequent sonication pulses using a sonicator needle at maximum power.
All eluates were dialyzed against 20 mM Tris/HCl pH 6.8, 300 mM KCl; 5 mM MgCl2;1 mM DTT; 0.2 mM PMSF; 10% Glycerol. A typical dialyzed eluate fraction contained the fusion protein at a purity of more than 80%. Total protein concentration was 0.1-0.3 mg/ml.
For E. coli expression of a NR coactivator, pDest17-hTif2BD expressing an NR interaction domain from amino acids 548-878 of human Tif2 (Acc. No: XM011633 Ref Seq) tagged by 6 N-terminal His residues was constructed. Therefore, a PCR fragment specifically amplified from human liver cDNA was subcloned into pDest 17 (Invitrogen) following the manufacturers instructions for Gateway cloning (Invitrogen). Primers used for Amplification were: […]
For E. coli expression plasmid DNA was transformed into chemically competent E. coli BL21 (Invitrogen, USA) and cells were grown to an OD600 of 0.4-0.7 before expression was induced by addition of 0.5 mM IPTG according instructions of the manufacturer (Invitrogen). After induction for 8 hours at 30° C. cells were harvested by centrifugation for 10 minutes at 5000×g. Fusion proteins were affinity purified using Ni—NTA Agarose (QIAGEN) according to the instructions of the manufacturer.
Recombinant Tif2 construct was dialyzed against 20 mM Tris/HCL pH 7.9; 60 mM KCl; 5 mM MgCl2; 1 mM DTT, 0.2 mM PMSF; 10% glycerol. A typical dialyzed eluate fraction contained the fusion protein at a purity of more than 80%. Total protein concentration was 0.1-0.3 mg/ml.
The TIF2 fragment was subsequently biotinylated by addition of 5-40 ul/ml Tif2 fraction of a Biotinamidocaproate N-Hydroxysuccinimide-ester (Sigma) solution (20 mg/ml in DMSO). Overhead rotating samples were incubated for 2 hours at room temperature. Unincorporated label was then separated using G25 Gel filtration chromatography (Pharmacia Biotech, Sweden). Protein containing fractions from the column were pooled and tested for activity in the assay as described below.
For screening of compound libraries as provided for by the methods shown below in the examples for substances which influence the LXR/Tif 2 interaction, the PerkinElmer LANCE technology is applied. This method relies on the binding dependent energy transfer from a donor to an acceptor fluorophore attached to the binding partners of interest. […]
A general note: Time-resolved FRET reads energy transfer from a long-lived donor to a nearby acceptor.

Read-outs that look alike come from different tables or passages of the source.

With `C=CCn1c(N2C3CC(C)(C)CC2(C)C3)nc2ccc(I)cc2c1=O` (stereo not shown) [formula (9)], the “selectivity of upregulation of ABCA1 and ABCG1 in THP-1 cells versus FAS and SREBP-1c in HepG2 cells” value (“selectivity” for short) is listed as “selective upregulation” in experiment [1] and “selective transcriptional effect” in experiment [1] (listed as TR1040001892). Also, the EC50 in experiment [2] (FRET assay, read-out: EC50 at LXR (half-maximal effective concentration)) amounted to 2 µM.
`CC(C)n1c(N2C3CC(C)(C)CC2(C)C3)nc2ccc(I)cc2c1=O` (stereo not shown) [formula (10)]: the entries for the “selectivity” value in experiment [1] and in experiment [1] (listed as TR1040011382) were “selective upregulation” and “selective transcriptional effect”, respectively. Also, the “active as agonist / partial agonist of the LXR human nuclear receptor” value in experiment [2] is “active as partial agonist”.
`CCCn1c(N2[C@@H]3CC(C)(C)C[C@@]2(C)C3)nc2cccc(F)c2c1=O` [formula (11)]: the “selectivity” value in experiment [1] is given as “reduced selectivity”. The “active as agonist / partial agonist of the LXR human nuclear receptor” value in experiment [2] was “active as partial agonist”.
For `C=CCn1c(N2[C@@H]3CC(C)(C)C[C@@]2(C)C3)nc2cccc(F)c2c1=O` [formula (12)], in that order: “reduced selectivity” and “active as partial agonist”.
